The term IC50 denotes the midpoint of a concentration-inhibition curve.

Data set [1] addresses MEK1 (Homo sapiens, UniProt Q02750). Kind of data set: Raf-MEK-ERK cascade kinase assay using recombinant protein (MEK1). The format is biochemical. Conditions: 10 μM ATP, active B-Raf (V599E), 30° C. 30 minutes. The procedure: (§1) Experimental purpose: The inhibitory activity of the compounds on MEK1 and MEK2 was measured by performing a Raf-MEK-ERK cascade kinase assay using recombinant protein.
(§2) Experimental method: 2 mg of dephosphorylated myelin basic protein (MBP) was dispersed in a 0.2 M sodium carbonate aqueous solution (pH=9.4). The mixed solution was then coated onto an enzyme-linked immunosorbent assay (ELISA) plate (U-shaped bottom plate) and left to stand overnight at 4° C. […] Compound solutions with serial concentrations were tested in triplicate wells. A mixture of 2 ng of inactivated MEK1 (or 4 ng of MEK2) and 50 ng of inactivated ERK2 was dissolved in a buffer solution (20 mM MOPS [pH=7.4], 0.1% 2-mercaptoethanol, 0.1% BSA) at room temperature, and then treated with the above serial solutions on a flat plate. The plate was covered with 1% bovine serum albumin (BSA) and pre-incubated for 10 minutes. […] After incubation at 30° C. for 30 minutes, phosphorylation of MBP by ERK was detected using peroxidase-labeled anti-phosphorylated MBP antibodies. Data curves were plotted and half maximal inhibitory concentration (IC50) values were calculated using XLFit.

The target in data set [2] is MEK2 (Homo sapiens, UniProt P36507). The data set is described as follows: Raf-MEK-ERK cascade kinase assay using recombinant protein (MEK2). The format is biochemical. The settings on record: 10 μM ATP, active B-Raf (V599E), 30° C. 30 minutes. Here is the method:
as §1, §2

Data set [3] relates to human malignant melanoma cells (A375). The data set is described as follows: Anti-proliferative activity, CCK-8 assay, A375. The format is cell-based. Conditions: A-375, 72 h incubation. The procedure: (§3) Experimental procedure: Sample solutions with a concentration of 20 μM were prepared and serially diluted 5-fold downwards to obtain 10 concentrations: 20000 nM, 4000 nM, 800 nM, 160 nM, 32 nM, 6.4 nM, 1.28 nM, 0.256 nM, 0.0512 nM and 0.01024 nM. The sample solutions were incubated with the above cell lines for 72 h. Then 10 μL of a CCK-8 solution was then added to each well, followed by a further 2 hours incubation. An optical density (OD) value was measured at 450 nm using a fully automated microplate reader. Data were processed using GraphPad Prism 7 to calculate IC50.
A general note: Formazan colour is commonly taken as a measure of viable cells.

For data set [4], the system named is human colon cancer cells (HCT-15). The data set is described as follows: Anti-proliferative activity, CCK-8 assay, HCT-15. The format is cell-based. The settings on record: 72 h incubation. The procedure:
as §3

Data set [5] deals with human non-small cell lung cancer cells (A549). Kind of data set: Anti-proliferative activity, CCK-8 assay, A549. The format is cell-based. Conditions: 72 h incubation. The procedure: as §3
In data set [6] the test system is human colon cancer cells (HCT116). The data set is described as follows: Anti-proliferative activity, CCK-8 assay, HCT116. The class given is cell-based. Conditions: HCT-116, 72 h incubation. Here is the method:
as §3

Data set [7] has as its system human prostate cancer cells (PC-3). The data set is described as follows: Anti-proliferative activity, CCK-8 assay, PC-3. The format is cell-based. The settings on record: 72 h incubation. The procedure:
as §3

Data set [8] relates to human HCT116 subcutaneous xenograft tumors. The data set is described as follows: In vivo anti-tumor assay, subcutaneous xenograft model. Also noted: species or system BALB/c nude mouse. The settings on record: 3 mg/kg P.O. QD × 30 days; for Tumor growth inhibition, tumor volume change (FIG. 2): compared to the Trametinib group. Here is the method: Experimental purpose: To evaluate the in vivo efficacy of the compounds in a subcutaneous xenograft model of human cancer cells in a Bagg's albino (BALB/c) nude mouse.
The tumor suppressive efficacy of the compounds was quantified by TGI (%) or relative tumor proliferation rate T/C (%). TGI (%) reflected the tumor growth inhibition rate. TGI(%) was calculated using the following equation: TGI(%)=[1−(mean tumor volume at the end of treatment in a treatment group-mean tumor volume at the start of treatment in the treatment group)/(mean tumor volume at the end of treatment in the solvent control group-mean tumor volume at the start of treatment in the solvent control group)]×100%.
T/C(%) was calculated using the following equation: T/C (%)=TRTV/CRTV×100%, where TRTV was an RTV of the treatment group, and CRTV was an RTV of the negative control group. The RTV was calculated from the results of tumor size measurements according to the following equation: RTV=Vt/V0, where V0 was a mean tumor volume measured on the day of first administration (i.e., day 0), Vt was a mean tumor volume measured on the day indicated, and TRTV and CRTV were obtained from data on the same day.

The nature of data set [9]: Body weight change of experimental mice in the xenograft study. Conditions: 3 mg/kg gavage, 30 days.
Excerpt: Experimental procedure: The study evaluated the inhibitory effect of compounds administered by gavage against human HCT116 subcutaneous xenograft tumors in the BALB/c nude mouse model by measuring tumor size and calculating tumor volume (TV), relative tumor volume (RTV), relative tumor proliferation rate (T/C), and anti-tumor efficacy (TGI).

MEK2, sequence (P36507 whole entry): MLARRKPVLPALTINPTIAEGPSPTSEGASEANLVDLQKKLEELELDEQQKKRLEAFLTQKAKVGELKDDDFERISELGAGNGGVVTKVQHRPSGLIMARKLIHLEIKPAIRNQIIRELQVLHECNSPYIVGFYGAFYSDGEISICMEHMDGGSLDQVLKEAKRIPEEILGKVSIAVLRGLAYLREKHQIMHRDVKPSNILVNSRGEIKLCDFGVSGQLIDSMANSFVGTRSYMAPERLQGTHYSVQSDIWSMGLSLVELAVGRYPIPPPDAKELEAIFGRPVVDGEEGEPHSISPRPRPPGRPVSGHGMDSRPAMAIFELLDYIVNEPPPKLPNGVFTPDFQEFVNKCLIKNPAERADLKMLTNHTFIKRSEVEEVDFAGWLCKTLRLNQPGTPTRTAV
MEK1, sequence (Q02750 whole entry): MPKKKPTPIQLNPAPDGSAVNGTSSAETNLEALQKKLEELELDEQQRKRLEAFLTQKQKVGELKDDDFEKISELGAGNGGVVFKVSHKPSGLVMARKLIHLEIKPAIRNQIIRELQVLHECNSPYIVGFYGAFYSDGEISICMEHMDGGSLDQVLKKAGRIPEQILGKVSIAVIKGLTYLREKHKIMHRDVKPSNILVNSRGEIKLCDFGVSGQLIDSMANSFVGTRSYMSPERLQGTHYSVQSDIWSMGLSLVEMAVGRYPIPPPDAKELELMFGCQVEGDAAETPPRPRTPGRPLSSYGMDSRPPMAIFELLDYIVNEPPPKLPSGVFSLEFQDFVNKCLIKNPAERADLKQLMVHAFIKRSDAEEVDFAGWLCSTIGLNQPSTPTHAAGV

Regarding `CC(=S)Nc1cccc(-n2c(=O)n(C)c(=O)c3c(Nc4ccc(I)cc4F)n(C)c(=O)c(C)c32)c1` [Compound 1], the IC50 was 1.21 nM in [1]; 1.09 nM in [2]; 3.5 nM in data set [3]; 15.4 nM in data set [4]; 2.6 nM in data set [5]; 2.9 nM in [6]. The IC50 in [7] was found to be 2.4 nM.

Turning to `CC(=S)Nc1cccc(-n2c(=O)n(C3CC3)c(=O)c3c(Nc4ccc(I)cc4F)n(C)c(=O)c(C)c32)c1` [Compound 2], the IC50 was found to be 1.83 nM in data set [1]; 2.13 nM in [2]; 3.1 nM in data set [3]; 12.6 nM in data set [4]; 3.1 nM in [5]; 2.6 nM in data set [6]. In data set [7], this compound had an IC50 of 3.6 nM. Also, the “T/C (relative tumor proliferation rate)” value in data set [8] is 9.62%. In addition, the “TGI (tumor growth inhibition rate)” value in data set [8] was 98.72%. Further, the “Tumor volume (Day 30)” value in [8] was determined as 165 ± 21 mm^3. Also, the “Tumor growth inhibition, tumor volume change (FIG. 2)” value in data set [8] was “better inhibitory effects”. Besides, the “Weight loss at the end of the experiment / toxicity (FIG. 1)” value in [9] was “toxicity of Trametinib was higher than that of compounds 2, 8 and 12”.

Regarding `CC(=S)Nc1cccc(-n2c(=O)n(C(C)C)c(=O)c3c(Nc4ccc(I)cc4F)n(C)c(=O)c(C)c32)c1` [Compound 3], the IC50 amounted to 0.9 nM in data set [1]; 0.98 nM in data set [2]; 2.5 nM in data set [3]; 14.8 nM in data set [4]; 1.5 nM in data set [5]; 2.1 nM in [6]. In data set [7], this compound had an IC50 of 1.9 nM.

Regarding `CC(=S)Nc1cccc(-n2c(=O)n(C3CCCC3)c(=O)c3c(Nc4ccc(I)cc4F)n(C)c(=O)c(C)c32)c1` [Compound 4], the IC50 in [1] worked out at 1.36 nM; in data set [2], 1.05 nM; in data set [3] it was 3.9 nM; in data set [4], 9.8 nM; in data set [5], 2.4 nM; in data set [6] it was 1.6 nM. This compound also yielded a half-maximal inhibitory concentration (IC50) in data set [7] of 1.4 nM.

`CCC(=S)Nc1cccc(-n2c(=O)n(C3CC3)c(=O)c3c(Nc4ccc(I)cc4F)n(C)c(=O)c(C)c32)c1` [Compound 5]: the IC50 in [2] came out at 1.19 nM; in data set [3], 2.6 nM; in data set [4] it was 20.1 nM; in [5], 3.6 nM; in [6], 3.8 nM; in [7], 3.3 nM.

On to `Cc1c(=O)n(C)c(Nc2ccc(I)cc2F)c2c(=O)n(C3CC3)c(=O)n(-c3cccc(NC(=S)C4CC4)c3)c12` [Compound 6], for which the concentration for half-maximal inhibition (IC50) in [1] stood at 1.88 nM; in data set [2], 1.24 nM; in data set [3], 2.9 nM; in [4] it was 13.9 nM; in data set [5] it was 3.9 nM; in data set [6], 1.6 nM. This compound also gave a concentration for half-maximal inhibition (IC50) in data set [7] of 2.8 nM.

Turning to `Cc1c(=O)n(C)c(Nc2ccc(I)cc2F)c2c(=O)n(C3CC3)c(=O)n(-c3cccc(NC(=S)C(C)C)c3)c12` [Compound 7], the concentration for half-maximal inhibition (IC50) amounted to 0.95 nM in data set [1]; 1.01 nM in data set [2]; 4.3 nM in data set [3]; 24.2 nM in [4]; 2.8 nM in data set [5]; 2.7 nM in data set [6]. The compound also returned an IC50 in data set [7] of 2.1 nM.

On to `Cc1c(=O)n(C)c(Nc2ccc(I)cc2F)c2c(=O)n(C3CC3)c(=O)n(-c3cccc(NC(=S)CO)c3)c12` [Compound 8], for which the half-maximal inhibitory concentration (IC50) stood at 1.57 nM in data set [1]; 2.08 nM in data set [2]; 4.7 nM in data set [3]; 25.8 nM in [4]; 5.8 nM in [5]; 4.2 nM in data set [6]. Further, in [7], 2.4 nM corresponded to half-maximal inhibition (IC50). The “T/C (relative tumor proliferation rate)” value in [8] is given as 8.17%. The “TGI (tumor growth inhibition rate)” value in data set [8] is 100.32%. Also, in data set [8], the “Tumor volume (Day 30)” value is recorded as 140 ± 26 mm^3. Moreover, the “Tumor growth inhibition, tumor volume change (FIG. 2)” value in data set [8] is “better inhibitory effects”. In addition, in data set [9], the “Weight loss at the end of the experiment / toxicity (FIG. 1)” value was “toxicity of Trametinib was higher than that of compounds 2, 8 and 12”.

As for `CC(=S)Nc1ccc(F)c(-n2c(=O)n(C3CC3)c(=O)c3c(Nc4ccc(I)cc4F)n(C)c(=O)c(C)c32)c1` [Compound 9], the IC50 in [1] is 2.29 nM; in data set [2], 2.26 nM; in data set [3], 2.8 nM; in [4], 21.6 nM; in [5], 4.4 nM; in [6], 5.2 nM. Further, the half-maximal inhibitory concentration (IC50) in [7] came to 1.9 nM.

For `CC(=S)Nc1cc(F)cc(-n2c(=O)n(C3CC3)c(=O)c3c(Nc4ccc(I)cc4F)n(C)c(=O)c(C)c32)c1` [Compound 10], the IC50 in [1] stood at 2.01 nM; in data set [2], 2.07 nM; in data set [3], 1.8 nM; in data set [4], 14.9 nM; in data set [5], 8.5 nM; in [6], 6.4 nM. Also, inhibition in [7] was half-maximal at 2.3 nM (IC50).

`CC(=S)Nc1cc(-n2c(=O)n(C3CC3)c(=O)c3c(Nc4ccc(I)cc4F)n(C)c(=O)c(C)c32)ccc1F` [Compound 11]: the IC50 came out at 1.37 nM in data set [1]; 1.54 nM in data set [2]; 2.4 nM in data set [3]; 21.8 nM in [4]; 3.4 nM in data set [5]; 3.1 nM in [6]. The compound further yielded an IC50 in data set [7] of 2.7 nM.

On to `Cc1c(=O)n(C)c(Nc2ccc(I)cc2F)c2c(=O)n(C3CC3)c(=O)n(-c3cccc(NC(=S)CN)c3)c12` [Compound 12], for which the IC50 in data set [1] amounted to 1.51 nM; in data set [2] it was 2.13 nM; in data set [3], 3.1 nM; in [4], 22.7 nM; in data set [5], 3.1 nM; in [6], 3.6 nM. Also, inhibition in [7] was half-maximal at 2.3 nM (IC50). Further, the “T/C (relative tumor proliferation rate)” value in [8] is reported as 7.47%. Besides, in data set [8], the “TGI (tumor growth inhibition rate)” value was 101.08%. Also, in [8], the “Tumor volume (Day 30)” value was 128 ± 19 mm^3. Further, the “Tumor growth inhibition, tumor volume change (FIG. 2)” value in data set [8] is “better inhibitory effects”. Also, the “Weight loss at the end of the experiment / toxicity (FIG. 1)” value in data set [9] was “toxicity of Trametinib was higher than that of compounds 2, 8 and 12”.

Turning to `Cc1c(=O)n(C)c(Nc2ccc(I)cc2F)c2c(=O)n(C3CC3)c(=O)n(-c3cccc(NC(=S)C(=O)O)c3)c12` [Compound 13], the 50% inhibitory concentration (IC50) turned out to be 2.38 nM in data set [1]; 2.64 nM in [2]; 4.2 nM in data set [3]; 31.7 nM in [4]; 6.4 nM in data set [5]; 5.2 nM in data set [6]. In data set [7], this compound displayed a half-inhibitory concentration (IC50) of 4.5 nM.

Consider `CC(=O)Nc1cccc(-n2c(=O)n(C3CC3)c(=O)c3c(Nc4ccc(I)cc4F)n(C)c(=O)c(C)c32)c1` [Trametinib, reference compound], for which the half-inhibitory concentration (IC50) in data set [3] stood at 12.5 nM; in [4], 98.3 nM; in data set [5], 33.2 nM; in data set [6], 32.7 nM; in data set [7], 12.6 nM. Further, in data set [8], the “TGI (tumor growth inhibition rate)” value was 89.80%. Moreover, the “Tumor volume (Day 30)” value in [8] is listed as 305 ± 34 mm^3.

These data come from patent US12168659B2, “Thioamide derivative and preparation method and application thereof” (Yunbaiyao Zhengwu Science and Technology (Shanghai) Co., …, priority 2022, dated 2024).
